Experimental data as given in patent publication US9499550B2 (BRISTOL-MYERS SQUIBB COMPANY, priority 2012, dated 2016).
Read-outs that look alike come from different tables or passages of the source.

Assays:
[1] = test system: HCV genotype 1a (H77 strain) replicon in HUH-7 cells; assay: HCV replicon luciferase reporter assay, genotype 1a; format: cell-based; settings: Hepatitis C virus, Huh-7, 72 h, 3 days incubation
How it was run: (§1)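 Replicon inhibition for both genotypes was measured as Renilla luciferase signal (EnduRen, 7.5 μM final, 2 h) after 3-day, 37° C exposure of replicon-bearing HUH-7 cells in 4% FCS DMEM, 0.5% DMSO. The 1b construct carries S1179I; the 1a H77 construct carries P1496L and S2204I. Twenty-point, 3-fold dilutions were fitted four-parametrically for EC50, and CC50 was taken from multiplexed Cell Titer-Blue.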

[2] = test system: HCV genotype 1b (Con1) replicon in HUH-7 cells; assay: HCV replicon luciferase reporter assay, genotype 1b; format: cell-based; settings: Hepatitis C virus, Huh-7, 72 h, 3 days incubation
How it was run: as §1

[3] = HCV genotype 1a replicon luciferase, read-out: LE_1a (EC50, range)
[4] = HCV genotype 1b replicon luciferase, read-out: LE_1b (EC50, range)
[5] = HCV genotype 1a replicon luciferase assay, range class, read-out: LE_1a (EC50, range)
[6] = HCV genotype 1b replicon luciferase assay, range class, read-out: LE_1b (EC50, range)
[7] = GETYPE1A, HCV genotype 1a replicon luciferase, read-out: LE_1a (EC50, range)
[8] = GETYPE1B, HCV genotype 1b replicon luciferase, read-out: LE_1b (EC50, range)

SMILES | EC50 [1, 3] [nM] | EC50 [2, 4] [nM] | further results
CCn1nc(O[C@@H]2C[C@H]3C(=O)N[C@]4(C(=O)NS(=O)(=O)C5(C)CC5)C[C@H]4/C=C\CC[C@@H](C)C[C@@H](C)[C@H](NC(=O)NC(C)(C)C)C(=O)N3C2)c2ccccc2c1=O [Compound 5059, (2R,6S,7R,9R,13aS,14aR,16aS,Z)-6-(3-(tert-butyl)ureido)-2-((3-ethyl-4-oxo-3,4-dihydrophthalazin-1-yl)oxy)-7,9-dimethyl-N-((1-methylcyclopropyl)sulfonyl)-5,16-dioxo-1,2,3,5,6,7,8,9,10,11,13a,14,14a,15,16,16a-hexadecahydrocyclopropa[e]pyrrolo[1,2-a][1,4]diazacyclopentadecine-14a-carboxamide] | 4.82 to 103 | 4.82 to 103 | –
C[C@@H]1CC/C=C\[C@@H]2C[C@@]2(C(=O)NS(=O)(=O)C2(CF)CC2)NC(=O)[C@@H]2C[C@@H](Oc3nc4c(c5ccccc35)OCCC4)CN2C(=O)[C@@H](NC(=O)OC(C)(C)C(F)(F)F)[C@H](C)C1 [Compound 6030, 1,1,1-trifluoro-2-methylpropan-2-yl((2R,6S,7R,9R,13aS,14aR,16aS,Z)-2-((3,4-dihydro-2H-pyrano[3,2-c]isoquinolin-6-yl)oxy)-14a-(((1-(fluoromethyl)cyclopropyl)sulfonyl)carbamoyl)-7,9-dimethyl-5,16-dioxo-1,2,3,5,6,7,8,9,10,11,13a,14,14a,15,16,16a-hexadecahydrocyclopropa[e]pyrrolo[1,2-a][1,4]diazacyclopentadecin-6-yl)carbamate] | < 5.46 | < 5.46 | EC50 ([1]; HCV genotype 1a replicon luciferase, read-out: LE_1a (EC50)): 1.43 nM; EC50 ([2]; HCV genotype 1b replicon luciferase, read-out: LE_1b (EC50)): 0.81 nM
C[C@@H]1CC/C=C\[C@@H]2C[C@@]2(C(=O)NS(=O)(=O)C2(C)CC2)NC(=O)[C@@H]2C[C@@H](Oc3ncc(OC4CC4)c4ccccc34)CN2C(=O)[C@@H](NC(=O)OC(C)(C)C(F)(F)F)[C@H](C)C1 [Compound 4056, 1,1,1-trifluoro-2-methylpropan-2-yl ((2R,6S,7R,9R,13aS,14aR,16aS,Z)-2-((4-cyclopropoxyisoquinolin-1-yl)oxy)-7,9-dimethyl-14a-(((1-methylcyclopropyl)sulfonyl)carbamoyl)-5,16-dioxo-1,2,3,5,6,7,8,9,10,11,13a,14,14a,15,16,16a-hexadecahydrocyclopropa[e]pyrrolo[1,2-a][1,4]diazacyclopentadecin-6-yl)carbamate] | < 5.46 | < 5.46 | –
COc1cc2cc(-c3ccc(OC(C)C)cc3)nc(O[C@@H]3C[C@H]4C(=O)N[C@]5(C(=O)NS(=O)(=O)C6(C)CC6)C[C@H]5/C=C\CC[C@H](C)C[C@@H](C)[C@H](NC(=O)OC(C)(C)C(F)(F)F)C(=O)N4C3)c2cc1F [Compound 3185, 1,1,1-trifluoro-2-methylpropan-2-yl((2R,6S,7R,9S,13aS,14aR,16aS,Z)-2-((7-fluoro-3-(4-isopropoxyphenyl)-6-methoxyisoquinolin-1-yl)oxy)-7,9-dimethyl-14a-(((1-methylcyclopropyl)sulfonyl)carbamoyl)-5,16-dioxo-1,2,3,5,6,7,8,9,10,11,13a,14,14a,15,16,16a-hexadecahydrocyclopropa[e]pyrrolo[1,2-a][1,4]diazacyclopentadecin-6-yl)carbamate] | 4.82 to 103 | 4.82 to 103 | –
COCCn1nc(O[C@@H]2C[C@H]3C(=O)N[C@]4(C(=O)NS(=O)(=O)C5(C)CC5)C[C@H]4/C=C\CC[C@@H](C)C[C@@H](C)[C@H](NC(=O)OC(C)(C)C(F)(F)F)C(=O)N3C2)c2ccccc2c1=O [Compound 1014, 1,1,1-trifluoro-2-methylpropan-2-yl((2R,6S,7R,9R,13aS,14aR,16aS,Z)-2-((3-(2-methoxyethyl)-4-oxo-3,4-dihydrophthalazin-1-yl)oxy)-7,9-dimethyl-14a-(((1-methylcyclopropyl)sulfonyl)carbamoyl)-5,16-dioxo-1,2,3,5,6,7,8,9,10,11,13a,14,14a,15,16,16a-hexadecahydrocyclopropa[e]pyrrolo[1,2-a][1,4]diazacyclopentadecin-6-yl)carbamate] | – | – | EC50 [1, 5]: 4.82 to 103 nM; EC50 [2, 6]: 4.82 to 103 nM
C[C@@H]1CC/C=C\[C@@H]2C[C@@]2(C(=O)NS(=O)(=O)C2CC2)NC(=O)[C@@H]2C[C@@H](Oc3nccc4c5c(ccc34)N(C)CCO5)CN2C(=O)[C@@H](NC(=O)OC(C)(C)C(C)(F)F)[C@H](C)C1 [Compound 5282, 3,3-difluoro-2-methylbutan-2-yl((2R,6S,7R,9R,13aS,14aR,16aS,Z)-14a-((cyclopropylsulfonyl)carbamoyl)-7,9-dimethyl-2-((4-methyl-3,4-dihydro-2H-[1,4]oxazino[2,3-f]isoquinolin-7-yl)oxy)-5,16-dioxo-1,2,3,5,6,7,8,9,10,11,13a,14,14a,15,16,16a-hexadecahydrocyclopropa[e]pyrrolo[1,2-a][1,4]diazacyclopentadecin-6-yl)carbamate] | < 5.46 | < 5.46 | –
CC[C@@H]1C[C@H](C)CC/C=C\[C@@H]2C[C@@]2(C(=O)NS(=O)(=O)C2CC2)NC(=O)[C@@H]2C[C@@H](Oc3ncc(N4CCOCC4)c4cc(OC)c(F)cc34)CN2C(=O)[C@H]1NC(=O)OC(C)(C)C(F)(F)F [Compound 4243] | – | – | EC50 [1, 7]: 1.01 to 5 nM; EC50 [2, 8]: 0.51 to 1 nM
CC[C@@H]1C[C@H](C)CC/C=C\[C@@H]2C[C@@]2(C(=O)NS(=O)(=O)C2(C)CC2)NC(=O)[C@@H]2C[C@@H](Oc3ncc(N(C)C)c4cc(OC)ccc34)CN2C(=O)[C@H]1NC(=O)OC(C)(C)C(F)(F)F [Compound 4241] | – | – | EC50 [1, 7]: 1.01 to 5 nM; EC50 [2, 8]: 1.01 to 5 nM
COc1ccc2c(O[C@@H]3C[C@H]4C(=O)N[C@]5(C(=O)NS(=O)(=O)C6CC6)C[C@H]5/C=C\CC[C@@H](C)C[C@@H](C)[C@H](NC(=O)OC5(C)CC5)C(=O)N4C3)nccc2c1 [Compound 4054] | < 5.46 | < 5.46 | –
CC[C@@H]1C[C@H](C)CC/C=C\[C@@H]2C[C@@]2(C(=O)NS(=O)(=O)C2CC2)NC(=O)[C@@H]2C[C@@H](Oc3nc4cc(OC)c(F)cc4nc3C(F)(F)F)CN2C(=O)[C@H]1NC(=O)OC(C)(C)C [Compound 4266, tert-butyl ((2R,6S,7R,9R,13aS,14aR,16aS,Z)-14a-((cyclopropylsulfonyl)carbamoyl)-7-ethyl-2-((6-fluoro-7-methoxy-3-(trifluoromethyl)quinoxalin-2-yl)oxy)-9-methyl-5,16-dioxo-1,2,3,5,6,7,8,9,10,11,13a,14,14a,15,16,16a-hexadecahydrocyclopropa[e]pyrrolo[1,2-a][1,4]diazacyclopentadecin-6-yl)carbamate] | 1.01 to 5 | 1.01 to 5 | –
COCCn1nc(O[C@@H]2C[C@H]3C(=O)N[C@]4(C(=O)NS(=O)(=O)C5(C)CC5)C[C@H]4/C=C\CC[C@H](C)C[C@@H](C)[C@H](NC(=O)OC(C)(C)C)C(=O)N3C2)c2ccccc2c1=O [Compound 1005, tert-butyl ((2R,6S,7R,9S,13aS,14aR,16aS,Z)-2-((3-(2-methoxyethyl)-4-oxo-3,4-dihydrophthalazin-1-yl)oxy)-7,9-dimethyl-14a-(((1-methylcyclopropyl)sulfonyl)carbamoyl)-5,16-dioxo-1,2,3,5,6,7,8,9,10,11,13a,14,14a,15,16,16a-hexadecahydrocyclopropa[e]pyrrolo[1,2-a][1,4]diazacyclopentadecin-6-yl)carbamate] | – | – | EC50 [1, 5]: > 87.4 nM; EC50 [2, 6]: > 87.4 nM
